These are literature values, as cited in article PMC6008465 (British Journal of Cancer, 2018).

This data set relates to patients. Further details: method as in Mekinist (trametinib) tablets package insert, Novartis 2017. The note with it: oral; ref Mekinist (trametinib) tablets package insert, Novartis 2017; cited from earlier work.

For the compound `CC(=O)Nc1cccc(-n2c(=O)n(C3CC3)c(=O)c3c(Nc4ccc(I)cc4F)n(C)c(=O)c(C)c32)c1` [trametinib], the “Adverse events associated in clinical trials” value is “retinal pigment epithelial detachment, retinal vein occlusion, interstitial lung disease, skin toxicity, and cardiomyopathy”.
